Target: T1, human 5-HT2C receptor (Homo sapiens, UniProt P28335)
T1 construct: expressed in transfected cells; host or cells: U2OS, stably transfected
T1 sequence (P28335 33-458): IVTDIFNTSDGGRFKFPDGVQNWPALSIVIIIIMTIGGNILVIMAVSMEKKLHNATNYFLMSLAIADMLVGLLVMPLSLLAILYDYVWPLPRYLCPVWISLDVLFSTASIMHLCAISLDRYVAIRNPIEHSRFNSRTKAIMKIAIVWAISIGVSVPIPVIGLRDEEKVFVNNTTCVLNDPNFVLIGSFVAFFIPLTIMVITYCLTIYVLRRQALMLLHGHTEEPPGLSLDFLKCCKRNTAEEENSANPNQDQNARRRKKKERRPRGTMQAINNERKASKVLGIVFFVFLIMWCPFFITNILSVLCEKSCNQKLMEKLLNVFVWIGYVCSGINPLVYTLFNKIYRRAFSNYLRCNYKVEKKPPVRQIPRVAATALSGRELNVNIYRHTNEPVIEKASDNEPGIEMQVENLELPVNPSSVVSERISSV
Experiment: cell-based

[1] = FLIPR calcium mobilization, U2OS cells
[2] = calcium mobilization, U2OS cells (Table 30)
[3] = relative to maximum response of serotonin (Table 30)

COc1ccc2[nH]cc(CCN3CC[C@H](OC(F)F)C3)c2c1 [(S) I-67, (S)-3-(2-(3-(Difluoromethoxy)pyrrolidin-1-yl)ethyl)-5-methoxy-1H-indole]
EC50 [1]: 2690 nM
Emax (% of serotonin) [1]: 75.3 % of serotonin

[2H]C([2H])([2H])N(CCc1c[nH]c2ccc(SC)cc12)C([2H])([2H])[2H] [Compound I-1, N,N-Bis(methyl-d3)-2-(5-(methylthio)-1H-indol-3-yl)ethan-1-amine]
EC50 [2]: 2.37 nM
Emax (% of serotonin) [3]: 98.89 % of serotonin

CCN(C)CCc1c[nH]c2ccc(SC)cc12 [Compound I-13, N-Ethyl-N-methyl-2-(5-(methylthio)-1H-indol-3-yl)ethan-1-amine]
EC50 [2]: 2.89 nM
Emax (% of serotonin) [3]: 92.77 % of serotonin

Reference: US20250257034A1, “INDOLE DERIVATIVES AS SEROTONERGIC AGENTS USEFUL FOR THE TREATMENT OF DISORDERS RELATED THERETO” (priority 2023, published 2025)
